System: mice
Assay: In vivo delivery of FLuc-mRNA lipid nanoparticles in mice, in vivo imaging (IVIS)
Details: for IVIS / % of organ targeting: Fluc-mRNA LNP; for organ targeting specificity (spleen or lung), in words: Table 3, Fluc-mRNA, various formulations
Experimental: After the preparation was completed, the preparation was injected intramuscularly (mice rectus femoris muscle of the thigh), intravenously (mice tail vein), or intraperitoneal injection or subcutaneous injection (subcutaneous on the back), with approximately 75 μL per mouse, for a total of 3 mice. After a certain time of injection, in vivo imaging (PerkinElmer, IVIS Lumina III) was performed. 10-15 minutes before imaging, 200 μL of 15 mg/mL D-Luciferin working solution was injected intraperitoneally, and the imaging analysis was performed using an in vivo imager.

[1] = route IM, organ not given, formulation, molar ratio and N/P as in the table
[2] = route IV, organ: body, formulation, molar ratio and N/P as in the table
[3] = route IV, organ: liver, formulation, molar ratio and N/P as in the table
[4] = route IV, organ: lung, formulation, molar ratio and N/P as in the table
[5] = route IV, organ: spleen, formulation, molar ratio and N/P as in the table
[6] = route IM, organ: liver, formulation, molar ratio and N/P as in the table
[7] = route IM, organ: lung, formulation, molar ratio and N/P as in the table
[8] = route IM, organ: muscle, formulation, molar ratio and N/P as in the table
[9] = route IM, organ: spleen, formulation, molar ratio and N/P as in the table
[10] = route IV, organ not given, formulation, molar ratio and N/P as in the table

| SMILES | IVIS [1] | IVIS [2] | IVIS [3] | IVIS [4] | IVIS [5] | % of organ targeting [6] | IVIS [6] | % of organ targeting [7] | IVIS [7] | IVIS [8] | % of organ targeting [9] | IVIS [9] | % of organ targeting [3] | % of organ targeting [4] | % of organ targeting [5] | organ targeting specificity (spleen or lung), in words | IVIS [10] | IVIS (route IH, organ: body, DSPE-PEG5000:DSPC:Chol:compound 1.40:11.15:38.95:48.50, N/P 30) | IVIS (route IH, organ: spleen, DSPE-PEG5000:DSPC:Chol:compound 1.40:11.15:38.95:48.50, N/P 30) |
| --- | --- | --- | --- | --- | --- | --- | --- | --- | --- | --- | --- | --- | --- | --- | --- | --- | --- | --- | --- |
| CCCCCCC(CCCCCC)C(=O)NCCOC(=O)C(O)CN(CCCN(CC(O)C(=O)OCCNC(=O)C(CCCCCC)CCCCCC)CC(O)C(=O)OCCNC(=O)C(CCCCCC)CCCCCC)CCCN(CC(O)C(=O)OCCNC(=O)C(CCCCCC)CCCCCC)CC(O)C(=O)OCCNC(=O)C(CCCCCC)CCCCCC (stereo not drawn) [Compound L0363] | 2.08E+07 | 6.16E+09 | 6.56E+08 | 4.56E+06 | 9.96E+06 | – | – | – | – | – | – | – | – | – | – | – | – | – | – |
| CCCCCCCCC(CCCCCC)C(=O)OCCCCNC(=O)C(O)CN(CCCN(C)CCCN(CC(O)C(=O)NCCCCOC(=O)C(CCCCCC)CCCCCCCC)CC(O)C(=O)NCCCCOC(=O)C(CCCCCC)CCCCCCCC)CC(O)C(=O)NCCCCOC(=O)C(CCCCCC)CCCCCCCC (stereo not drawn) [Compound L0376] | – | 5.58E+07 | 1.64E+07 | 2.32E+07 | 7.23E+07 | 30.06% | 2.21E+05 | 5.80% | 4.27E+04 | 2.06E+07 | 64.14% | 4.72E+05 | 14.62% | 20.78% | 64.60% | strong targeting specificity to deliver to spleen | – | – | – |
| CCCCCCC(CCCCCC)C(=O)NCCNC(=O)C(O)CN(CCCN(CC(O)C(=O)NCCNC(=O)C(CCCCCC)CCCCCC)CC(O)C(=O)NCCNC(=O)C(CCCCCC)CCCCCC)CCCN(CC(O)C(=O)NCCNC(=O)C(CCCCCC)CCCCCC)CC(O)C(=O)NCCNC(=O)C(CCCCCC)CCCCCC (stereo not drawn) [Compound L0381] | 1.90E+07 | 1.57E+08 | 8.07E+07 | 4.31E+05 | 1.22E+07 | – | – | – | – | – | – | – | 86.51% | 0.46% | 13.03% | – | – | – | – |
| CCCCCCCCCCCCNC(=O)C(O)CN(CCCN(C)CCN(C)CCCN(CC(O)C(=O)NCCCCCCCCCCCC)CC(O)C(=O)NCCCCCCCCCCCC)CC(O)C(=O)NCCCCCCCCCCCC (stereo not drawn) [Compound L0366] | 4.56E+05 | – | – | – | – | – | – | – | – | – | – | – | – | – | – | – | – | – | – |
| CCCCCCCCN(C)C(=O)C(O)CN(CCN(C)CCN(CC(O)C(=O)N(C)CCCCCCCC)CC(O)C(=O)N(C)CCCCCCCC)CC(O)C(=O)N(C)CCCCCCCC (stereo not drawn) [Compound L0352] | 4.47E+05 | 1.95E+06 | 4.07E+05 | 2.38E+05 | 2.02E+06 | – | – | – | – | – | – | – | 15.27% | 8.93% | 75.80% | – | – | – | – |
| CCCCCCCCN(C)C(=O)C(O)CN(C)CCN(C)CCN(C)CC(O)C(=O)N(C)CCCCCCCC (stereo not drawn) [Compound L0351] | 1.19E+06 | – | – | – | – | – | – | – | – | – | – | – | – | – | – | – | 1.55E+06 | – | – |
| CCCCCCCCCCOC(=O)CCCNC(=O)C(O)CN(CCCN(CC(O)C(=O)NCCCC(=O)OCCCCCCCCCC)CC(O)C(=O)NCCCC(=O)OCCCCCCCCCC)CCCN(CC(O)C(=O)NCCCC(=O)OCCCCCCCCCC)CC(O)C(=O)NCCCC(=O)OCCCCCCCCCC (stereo not drawn) [Compound L0387] | 1.15E+05 | – | – | – | – | – | – | – | – | – | – | – | – | – | – | – | 5.23E+05 | – | – |
| CCCCCCC(CCCCCC)C(=O)OCCCCCCNC(=O)C(O)CN(CCCN(C)CCCN(CC(O)C(=O)NCCCCCCOC(=O)C(CCCCCC)CCCCCC)CC(O)C(=O)NCCCCCCOC(=O)C(CCCCCC)CCCCCC)CC(O)C(=O)NCCCCCCOC(=O)C(CCCCCC)CCCCCC (stereo not drawn) [Compound L0358] | 1.45E+07 | – | – | – | – | – | – | – | – | – | – | – | – | – | – | – | – | – | – |
| CCCCCCCCCCCCNC(=O)C(CN(CCCN(C)CCCN(CC(OC(C)=O)C(=O)NCCCCCCCCCCCC)CC(OC(C)=O)C(=O)NCCCCCCCCCCCC)CC(OC(C)=O)C(=O)NCCCCCCCCCCCC)OC(C)=O (stereo not drawn) [Compound L0388] | 1.49E+07 | 1.49E+08 | 2.37E+07 | 1.74E+06 | 8.08E+07 | – | – | – | – | – | – | – | 22.33% | 1.64% | 76.03% | – | – | – | – |
| CCCCCCCCCCN(C)C(=O)C(O)CN(CCN(C)CCN(CC(O)C(=O)N(C)CCCCCCCCCC)CC(O)C(=O)N(C)CCCCCCCCCC)CC(O)C(=O)N(C)CCCCCCCCCC (stereo not drawn) [Compound L0349] | 8.25E+04 | – | – | – | – | – | – | – | – | – | – | – | – | – | – | – | 5.98E+05 | – | – |
| CCCCCCC(CCCCC)C(=O)OCCCCNC(=O)C(O)CN(CCCN(C)CCCCN(CCC(O)C(=O)NCCOC(=O)C(CCCCCC)CCCCCC)C(O)C(=O)NCCCCOC(=O)C(CCCCCC)CCCCCC)CC(O)C(=O)NCCCCOC(=O)C(CCCCC)CCCCCC (stereo not drawn) [Compound L0367] | 3.40E+07 | 4.05E+07 | 3.83E+06 | 4.47E+07 | 3.69E+07 | – | – | – | – | – | – | – | 3.91% | 45.55% | 37.59% | – | – | 1.65E+07 | 8.20E+03 |
| CCCCCCCCC(CCCCCC)C(=O)OCCCCCCNC(=O)C(O)CN(CCCN(C)CCCN(CC(O)C(=O)NCCCCCCOC(=O)C(CCCCCC)CCCCCCCC)CC(O)C(=O)NCCCCCCOC(=O)C(CCCCCC)CCCCCCCC)CC(O)C(=O)NCCCCCCOC(=O)C(CCCCCC)CCCCCCCC (stereo not drawn) [Compound L0370] | 1.68E+07 | 1.43E+07 | 8.65E+05 | 3.34E+06 | 1.44E+07 | – | – | – | – | – | – | – | 4.65% | 17.97% | 77.39% | – | – | – | – |
| CCCCCCCCC(CCCCCC)C(=O)OCCCCNC(=O)C(O)CN(CCCN(CC(O)C(=O)NCCCCOC(=O)C(CCCCCC)CCCCCCCC)CC(O)C(=O)NCCCCOC(=O)C(CCCCCC)CCCCCCCC)CCCN(CC(O)C(=O)NCCCCOC(=O)C(CCCCCC)CCCCCCCC)CC(O)C(=O)NCCCCOC(=O)C(CCCCCC)CCCCCCCC (stereo not drawn) [Compound L0378] | – | 2.77E+08 | 5.93E+07 | 7.82E+05 | 7.04E+07 | 37.15% | 1.82E+05 | 12.65% | 6.19E+04 | 3.09E+07 | 50.19% | 2.45E+05 | 45.43% | 0.60% | 53.97% | strong targeting specificity to deliver to spleen | – | – | – |
| CCCCCCCCC(CCCCCC)C(=O)OCCCCCCNC(=O)C(O)CN(CCN(C)CCN(CC(O)C(=O)NCCCCCCOC(=O)C(CCCCCC)CCCCCCCC)CC(O)C(=O)NCCCCCCOC(=O)C(CCCCCC)CCCCCCCC)CC(O)C(=O)NCCCCCCOC(=O)C(CCCCCC)CCCCCCCC (stereo not drawn) [Compound L0371] | 3.02E+07 | 1.98E+07 | 2.58E+06 | 2.62E+06 | 2.64E+07 | – | – | – | – | – | – | – | 8.16% | 8.29% | 83.54% | – | – | – | – |
| CCCCCCCCN(C)C(=O)C(O)CN(CCCN(CC(O)C(=O)N(C)CCCCCCCC)CC(O)C(=O)N(C)CCCCCCCC)CCCN(CC(O)C(=O)N(C)CCCCCCCC)CC(O)C(=O)N(C)CCCCCCCC (stereo not drawn) [Compound L0354] | 6.90E+06 | 1.35E+08 | 3.14E+07 | 9.31E+05 | 3.86E+07 | – | – | – | – | – | – | – | 44.24% | 1.31% | 54.45% | – | – | – | – |
| CCCCCCCC(CCCCCCC)OC(=O)CCCNC(=O)C(O)CN(CCCN(CC(O)C(=O)NCCCC(=O)OC(CCCCCCC)CCCCCCC)CC(O)C(=O)NCCCC(=O)OC(CCCCCCC)CCCCCCC)CCCN(CC(O)C(=O)NCCCC(=O)OC(CCCCCCC)CCCCCCC)CC(O)C(=O)NCCCC(=O)OC(CCCCCCC)CCCCCCC (stereo not drawn) [Compound L0384] | – | 4.54E+08 | 1.50E+08 | 1.09E+06 | 1.24E+08 | 29.97% | 2.35E+05 | 13.02% | 1.02E+05 | 2.75E+07 | 57.01% | 4.47E+05 | 54.57% | 0.39% | 45.03% | strong targeting specificity to deliver to spleen | – | – | – |
| CCCCCCCCCCCCNC(=O)C(O)CN(CCCN(C)CCN(C)CCCN(CC(O)C(=O)NCCCCCCCCCCCC)CC(O)C(=O)NCCCCCCCCCCCC)CC(O)C(=O)NCCCCCCCCCCCC (stereo not drawn) [Compound L0365] | 1.24E+06 | – | – | – | – | – | – | – | – | – | – | – | – | – | – | – | – | – | – |
| CCCCCCCCCCOC(=O)CCCNC(=O)C(O)CN(CCN(C)CCN(CC(O)C(=O)NCCCC(=O)OCCCCCCCCCC)CC(O)C(=O)NCCCC(=O)OCCCCCCCCCC)CC(O)C(=O)NCCCC(=O)OCCCCCCCCCC (stereo not drawn) [Compound L0386] | 1.91E+05 | 6.49E+07 | 2.54E+06 | 1.86E+08 | 4.18E+06 | – | – | – | – | – | – | – | 1.32% | 96.51% | 2.17% | more selective towards the lung | – | – | – |

From patent US12233161B1, “Lipids and lipid nanoparticle formulations” (LONGUIDE BIOPHARMA CORPORATION, priority 2024, dated 2025)
